From patent US4622338A, “Substituted glutaric acid lactones in the treatment of hyperlipidemia” (G. D. Searle & Co., priority 1985, dated 1986)

Biological target: T1, rat liver microsomal HMGCoA reductase (Rattus norvegicus, UniProt P51639)
T1 construct: rat liver microsomal HMGCoA reductase; from tissue; host or cells: rat liver microsomes
T1 sequence (P51639 1-887): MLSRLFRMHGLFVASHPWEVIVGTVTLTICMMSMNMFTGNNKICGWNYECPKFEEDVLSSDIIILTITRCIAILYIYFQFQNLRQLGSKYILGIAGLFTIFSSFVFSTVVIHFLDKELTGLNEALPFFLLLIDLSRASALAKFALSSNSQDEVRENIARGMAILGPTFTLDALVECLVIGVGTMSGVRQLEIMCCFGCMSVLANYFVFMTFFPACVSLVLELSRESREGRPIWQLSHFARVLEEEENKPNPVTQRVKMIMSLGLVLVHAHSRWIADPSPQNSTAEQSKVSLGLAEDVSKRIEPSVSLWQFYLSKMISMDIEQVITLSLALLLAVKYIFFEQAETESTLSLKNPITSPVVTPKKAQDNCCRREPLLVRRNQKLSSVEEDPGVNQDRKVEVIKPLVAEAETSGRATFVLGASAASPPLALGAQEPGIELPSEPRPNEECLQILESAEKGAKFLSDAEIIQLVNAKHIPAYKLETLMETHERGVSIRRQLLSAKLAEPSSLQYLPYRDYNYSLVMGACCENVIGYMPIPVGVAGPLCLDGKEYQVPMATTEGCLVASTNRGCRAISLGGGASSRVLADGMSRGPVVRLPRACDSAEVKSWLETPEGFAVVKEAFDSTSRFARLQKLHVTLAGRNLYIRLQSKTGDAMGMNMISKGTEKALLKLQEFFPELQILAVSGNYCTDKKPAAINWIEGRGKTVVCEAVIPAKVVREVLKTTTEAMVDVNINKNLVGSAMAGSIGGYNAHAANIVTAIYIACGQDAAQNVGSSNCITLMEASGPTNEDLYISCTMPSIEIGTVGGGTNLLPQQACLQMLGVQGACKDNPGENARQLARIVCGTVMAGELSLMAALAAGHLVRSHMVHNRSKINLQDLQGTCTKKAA
Test: in vitro inhibition of rat liver microsomal HMGCoA reductase
Assay type: biochemical
Settings: read-out: % inhibition (HMG CoA reductase); for inhibition at 50 µM: at 5.0×10^-5 M
Procedure: The in vitro inhibitory activity of the present compounds is evaluated using rat liver microsomal HMGCoA reductase as described by Edwards, et al. J. Biol. Chem. 249, 2891 (1974). The IC50 is defined as the concentration required to inhibit the enzyme by 50% of control.
HMG derivaties are added to a preincubation mixture consisting of 0.1 M K PO4, PH7.2, 0.02 M glucose-6-PO4, 2.5 mM NADP, 0.7 units of glucose-6-PO4 dehydrogenase, 5 mM dithiothreitol, 50 mM mevalonic acid and approximately 50 μg of microsomal protein. Triplicate samples are preincubated for 15 min. at 37° C. in a volume of 1 ml. Incubation is started with 40 μM 14C-HMGCoA (0.1 ml) run for 15 min. at 37° C. and stopped with 5 N HCl (0.1 ml). Assay tubes are allowed to set for at least 30 min., then approximately 50,000 dpm of ^3 H-mevalonic acid are added to provide for extraction efficiency. Mevalonic acid is extracted with ether and the % ^14 C-HMGCoA incorporation determined for concurrent control and test reaction systems. Testing is done (first) with a range finding assay followed by a 4 or 5 point assay to find the IC50 value.

SMILES	inhibition at 50 µM	inhibition at 75 µM (at 7.5×10^-5 M)
CCCCCCCCCCCCCC1CC(O)(CC(=O)O)CC(=O)O1 (stereo not drawn) [Example 1, 3-Carboxymethyl-3,5-Dihydroxyoctadecanoic Acid-1,5-Lactone]	52%	
CC(CCCCCCCCC1CC(O)(CC(=O)O)CC(=O)O1)c1ccccc1 (stereo not drawn) [Example 2, 3-Carboxymethyl-3,5-dihydroxy-14-phenylpentadecanoic acid 1,5-Lactone]	57%	
CC(CCCCCCCCC1CC(O)(CC(=O)O)CC(=O)O1)C1CCCCC1 (stereo not drawn) [Example 3, 3-Carboxymethyl-14-cyclohexyl-3,5-dihydroxypentadecanoic acid 1,5-lactone]		49%
